{
  "source": "paper PMC8750527",
  "about": "(Cancers, 2021)",
  "key": {"[1]": {"test_system": "HD-MB03 intracranial tumors", "description": "HD-MB03-Luc spheroids were stereotaxically implanted into the brains of 9-week-old Rj:NMRI-Foxn1 nude (nu/nu) female mice (Janvier Labs, Le Genest-Saint-Isle, France). Briefly, MB spheroids were generated with 2500 cells grown for 48 h in ultralow-adhesion spheroid 96-well plates (Corning, Corning, NY, USA) and three spheroids per mouse were implanted into the left cerebellar hemisphere (2 mm posterior, 1.5 mm left of the lambda point and 2.5 mm deep) using a Hamilton syringe fitted with a needle (Hamilton, Bonaduz, Switzerland) and following the procedure already described. […] Oral gavage with a vehicle solution was used as the control. Mouse survival was based on the presence of neuropathological symptoms including gait defects and a loss of weight over 10% as endpoints. A minimum of five mice per group was chosen to yield sufficient statistical power (p < 0.05, one-way ANOVA). These experiments were carried out in strict accordance with the recommendations in the Guide for the Care and Use of Laboratory Animals. Our experiments were approved by Direction de l’Action Sanitaire et Sociale of the Principality of Monaco and the ethics committee of Centre Scientifique de Monaco.\n(§1) Tumor samples were recovered from the animals and embedded in the OCT compound according to the manufacturer’s protocol (Thermo Fisher Scientific Inc., Waltham, MA, USA). After that, 5 µm thin sections were prepared with a cryostat (Leica Microsystems, Wetzlar, Germany). Incubation was carried out with the following antibodies diluted at 1:1000 in TBS supplemented with 1% horse serum and 1% BSA for 20 min at room temperature: anti-Ki67 (cat. number ab16667, Abcam, Cambridge, UK), anti-CD31 (cat. number 550274, BD Biosciences, Frankton Lake, NJ, USA) or anti-αSMA (cat. number A2547, Merck Millipore, Burlington, MA, USA). The preparations were then washed with TBS–0.025% Triton, incubated with anti-rabbit Alexa488 and anti-mouse Alex-555-coupled secondary antibodies (Cell Signaling Technology, Danvers, MA, USA), washed with TBS–0.025% Triton, and the nuclei were counterstained with Hoechst33342 (Thermo Fisher Scientific, Waltham, MA, USA). Fluorescence images of the cells were taken with a DMI400 inverted microscope equipped with a 40× objective (Leica Microsystemes, Nanterre, France) and a Zyla 5.5 camera (Andor Technologies, Belfast, UK) powered by the Micromanager software. At least one cross-section of nonoverlapping images of each tumor was acquired. All the images were then quantified with the CellProfiler 3.0 software."}, "20-day-old Wistar rats": {"test_system": "20-day-old Wistar rats", "test": "Juvenile rat toxicity experiment", "format": "in vivo", "settings": "50 mg/kg daily, oral gavage, four weeks; female and male", "source_text": "The experiments were approved by Comité National Institutionnel d’Ethique pour l’Animal de Laboratoire (France). The rats were bled and the brains were recovered and flash-frozen at the end of the experiment."}, "subcutaneous DAOY tumors": {"test_system": "subcutaneous DAOY tumors", "settings": "oral, thrice a week; axitinib 50 mg/kg, etoposide 30 mg/kg, combination 25 + 15 mg/kg", "description": "For subcutaneous xenograft experiments, tumor cells expressing the luciferase (350,000 HDMB-Luc cells and 1.10^6 DAOY-Luc cells) were resuspended in 200 µL of 5 µg/mL Matrigel (Corning Inc., Corning, NY, USA) and injected subcutaneously in the flank of 5-week-old Rj:NMRI-Foxn1 nude (nu/nu) female mice (Janvier Labs, Le Genest-Saint-Isle, France). Saline solution (NaCl 0.9M; 100 µL) containing 30 mg/mL D-Luciferin (Perkin Elmer, Wellesley, MA, USA) was injected intraperitoneally in the animals and the bioluminescence was quantified using an In Vivo Imaging System (Perkin Elmer, Wellesley, MA, USA) according to the manufacturer’s instructions. Tumor volume (V = L × l2 × 0.52) was determined with a caliper and the endpoint was determined as a tumor volume of 1000 mm^3. […] The mice were sacrificed when the tumor reached 1000 mm^3. […]\n(§2) The growth rate of the tumors generated with HD-MB03 cells was determined using a linear regression method applied to the growth curves between the sizes of 400 mm^3 up to the endpoint using Prism 5 (Graphpad Software Inc., San Diego, CA, USA).\nTumor samples were recovered from the animals and embedded in the OCT compound according to the manufacturer’s protocol (Thermo Fisher Scientific Inc., Waltham, MA, USA). […] All the images were then quantified with the CellProfiler 3.0 software."}, "MB cells": {"test_system": "MB cells", "test": "Proliferation index assay, MB cells", "format": "cell-based, human", "settings": "after 120 h; axitinib 5 µM, etoposide 1 µM", "description": "DAOY, D458, D283, C8-D1A and HDF (30,000 cells per well) and HD-MB03 (50,000 cells per well) were seeded in 24-well plates for proliferation assays."}, "HD-MB03": {"test_system": "HD-MB03", "test": "Cumulative population doubling (CPD), HD-MB03", "format": "cell-based, human", "settings": "continuous treatment; axitinib 5 µM, etoposide 1 µM", "description": "Cumulative population doubling (CPD) was assessed as previously described. Briefly, depending on the cell line, a variable number of cells corresponding to about 30% confluency were seeded in triplicate in 60 mm diameter Petri dishes. […] The cells were harvested when the confluency reached about 90%, counted and plated again at a dilution of 1/20. CPD was calculated as previously described."}, "HDF": {"test_system": "HDF", "test": "Cell viability, propidium iodine incorporation, HDF", "format": "cell-based, human", "settings": "48 h; axitinib, cabozantinib 5 µM, etoposide 1 µM", "description": "(§3) Cell viability assays were conducted using a propidium iodine incorporation technique with an ADAM-sHIT automated cell counter (NanoEnTek, Gyeonggi-do, Korea) according to the manufacturer’s protocol."}, "[2]": {"test_system": "subcutaneous HD-MB03 tumors", "test": "Subcutaneous HD-MB03 xenografts", "format": "in vivo, mouse", "settings": "oral, thrice a week", "description": "For subcutaneous xenograft experiments, tumor cells expressing the luciferase (350,000 HDMB-Luc cells and 1.10^6 DAOY-Luc cells) were resuspended in 200 µL of 5 µg/mL Matrigel (Corning Inc., Corning, NY, USA) and injected subcutaneously in the flank of 5-week-old Rj:NMRI-Foxn1 nude (nu/nu) female mice (Janvier Labs, Le Genest-Saint-Isle, France). Saline solution (NaCl 0.9M; 100 µL) containing 30 mg/mL D-Luciferin (Perkin Elmer, Wellesley, MA, USA) was injected intraperitoneally in the animals and the bioluminescence was quantified using an In Vivo Imaging System (Perkin Elmer, Wellesley, MA, USA) according to the manufacturer’s instructions. Tumor volume (V = L × l2 × 0.52) was determined with a caliper and the endpoint was determined as a tumor volume of 1000 mm^3. […] The mice were sacrificed when the tumor reached 1000 mm^3. […] No statistical methods were used to predetermine the sample size of the experiments. Animal facility availability and cost were used to determine sample sizes. Two independent cohorts of five mice per group were used for the tumor growth experiment with HD-MB03 cells and one cohort of five mice per group was used for the experiment with DAOY cells. Animal experiments were carried out in strict accordance with the recommendations in the Guide for the Care and Use of Laboratory Animals. Our experiments were approved by Direction de l’Action Sanitaire et Sociale of the Principality of Monaco and the ethics committee of Centre Scientifique de Monaco.\nas §2, §1"}, "C8-D1A astrocytes": {"test_system": "C8-D1A astrocytes", "test": "Cell viability, propidium iodine incorporation, C8-D1A", "format": "cell-based, murine", "settings": "48 h; axitinib, cabozantinib, sunitinib 5 µM, etoposide 1 µM", "description": "as §3"}, "barrier formed by HUVEC": {"test_system": "barrier formed by HUVEC", "test": "In vitro endothelium permeability assay (FITC-Dextran), HUVEC", "format": "cell-based, human", "settings": "3-day treatment, nontoxic doses", "description": "This assay was conducted as previously described. […] Permeability was measured by the passage of 40 kDa FITC-Dextran through the inserts. Fluorescence intensity measures were normalized to the DMSO control."}, "[3]": {"settings": "axitinib 50 mg/kg, etoposide 30 mg/kg, combination 25 + 15 mg/kg"}},
  "data": [
    {"smiles": "CNC(=O)c1ccccc1Sc1ccc2c(/C=C/c3ccccn3)n[nH]c2c1", "note": "[Axitinib, axitinib]", "values": [
      {"measurement": "number of CD31-positive and αSMA-positive double-stained structures (vessels covered with pericytes)", "setting": "[1]; metronomic oral treatment", "value": "decreased the number"},
      {"measurement": "intracranial tumor growth (BLI)", "setting": "[1]; oral, five times a week, axitinib 50 mg/kg, combination 25 + 15 mg/kg", "value": "reduced tumor growth"},
      {"measurement": "survival of mice with intracranial tumors", "setting": "[1]; oral, five times a week, axitinib 50 mg/kg, etoposide 30 mg/kg, combination 25 + 15 mg/kg", "value": "increased survival of the animals"},
      {"measurement": "general behavior and growth rate of juvenile rats", "setting": "20-day-old Wistar rats", "value": "no effect on the general behavior and growth rate"},
      {"measurement": "tumor growth (lognormal mathematical modelling)", "setting": "subcutaneous DAOY tumors", "value": "did not impair tumor growth"},
      {"measurement": "reduction of proliferation of MB cells", "setting": "MB cells", "value": "more than 80%"},
      {"measurement": "long-term proliferation (CPD) of HD-MB03 cells", "setting": "HD-MB03", "value": "strongly impaired their proliferation"},
      {"measurement": "viability of HDF normal cells", "setting": "HDF", "value": "no effect on the viability"},
      {"measurement": "number of endothelial cells (CD31-positive) and/or pericytes/cancer-associated fibroblasts (αSMA-positive)", "setting": "[2]", "value": "did not impact"},
      {"measurement": "surface of necrotic areas", "setting": "[2]", "value": "increased the surface of necrotic areas"},
      {"measurement": "tumor growth rates (linear regression, growth phase)", "setting": "[2]", "value": "reduced"},
      {"measurement": "median time to reach the endpoint volume (1000 mm^3)", "setting": "[2]; [3]", "value": 18, "unit": "days"},
      {"measurement": "range of time to reach the endpoint volume (1000 mm^3)", "setting": "[2]; [3]", "value": "13 to 63", "unit": "days"},
      {"measurement": "viability of C8-D1A normal cells", "setting": "C8-D1A astrocytes", "value": "no effect on the viability"},
      {"measurement": "permeability of the barrier formed by HUVEC", "setting": "barrier formed by HUVEC", "value": "permeabilized the barrier"}
    ]}
  ]
}
